These results are taken from US20070203247A1, “E[…] REGIMENS” (priority 2006, published 2007).

Like-named read-outs stand apart in the source and are kept apart here.

This experiment concerns patient experiencing an allergic emergency (anaphylaxis). Particulars: no amelioration after approx. 5 minutes, same device, within about five minutes after second dose. The procedure:
Administration of a first and second injectable dosage form comprising an epinephrine solution for the treatment of anaphylaxis
A patient weighing approximately 15 Kg experiencing an allergic emergency whereupon a caretaker initiates treatment at the onset of shortness of breath by administering to the patient an auto-injection of a first dose of an epinephrine solution comprising 0.1 mg of epinephrine intramuscularly.
A patient weighing approximately 25 Kg experiencing an allergic emergency initiates treatment at the onset of shortness of breath by self administering a manual injection of a first dose of an epinephrine solution comprising 0.125 mg of epinephrine intramuscularly.
A patient weighing approximately 90 Kg experiencing an allergic emergency initiates treatment at the onset of shortness of breath by self administering an auto-injection of a first dose of an epinephrine solution comprising 0.6 mg of epinephrine subcutaneously.
A patient weighing approximately 110 Kg experiencing an allergic emergency initiates treatment at the onset of shortness of breath by self administering an auto-injection of a first dose of an epinephrine solution comprising 0.75 mg of epinephrine intramuscularly.

With `CNC[C@H](O)c1ccc(O)c(O)c1` [epinephrine], the “patient's symptoms of anaphylaxis after the second injectable dose” value (“patient's symptoms of anaphylaxis” below) (Example 1: patient approx. 15 Kg, first dose 0.1 mg auto-injection intramuscularly, second dose 0.15 mg manual intramuscularly) is “symptoms of anaphylaxis are relieved or are at an acceptable level for transporting the patient to a physician”; the “patient's symptoms of anaphylaxis” value (Example 2: patient approx. 25 Kg, first dose 0.125 mg manual intramuscularly, second dose 0.125 mg manual intramuscularly) is reported as “symptoms of anaphylaxis are relieved or are at an acceptable level for transporting the patient to a physician”; the “patient's symptoms of anaphylaxis” value (Example 3: patient approx. 90 Kg, first dose 0.6 mg auto-injection subcutaneously, second dose 0.75 mg manual intramuscularly) is recorded as “symptoms of anaphylaxis are relieved or are at an acceptable level for transporting the patient to a physician”; the “patient's symptoms of anaphylaxis” value (Example 4: patient approx. 110 Kg, first dose 0.75 mg auto-injection intramuscularly, second dose 1.0 mg auto-injector intramuscularly) is on record as “symptoms of anaphylaxis are relieved or are at an acceptable level for transporting the patient to a physician”.
